Measurements from BigSolDB 2.1.

CN1CCN(C2=Nc3cc(Cl)ccc3Nc3ccccc32)CC1
Details | solubility (mole fraction)
in 1,2-dichloroethane, 283.15 K | 0.0117
in 1,2-dichloroethane, 288.15 K | 0.0157
in 1,2-dichloroethane, 293.15 K | 0.0183
in 1,2-dichloroethane, 298.15 K | 0.0215
in 1,2-dichloroethane, 303.15 K | 0.0243
in 1,2-dichloroethane, 308.15 K | 0.0285
in 1,2-dichloroethane, 313.15 K | 0.0314
in 1,2-dichloroethane, 318.15 K | 0.0386
in 1,2-dichloroethane, 323.15 K | 0.0464
in 1,2-dichloroethane, 328.15 K | 0.0573
in 1,2-dichloroethane, 333.15 K | 0.0648
in DMF, 283.15 K | 0.0781
in DMF, 288.15 K | 0.0844
in DMF, 293.15 K | 0.0893
in DMF, 298.15 K | 0.0936
in DMF, 303.15 K | 0.101
in DMF, 308.15 K | 0.111
in DMF, 313.15 K | 0.122
in DMF, 318.15 K | 0.133
in DMF, 323.15 K | 0.145
in DMF, 328.15 K | 0.155
in DMF, 333.15 K | 0.17
in DMSO, 293.15 K | 0.0596
in DMSO, 298.15 K | 0.064
in DMSO, 303.15 K | 0.0709
in DMSO, 308.15 K | 0.0836
in DMSO, 313.15 K | 0.0949
in DMSO, 318.15 K | 0.109
in DMSO, 323.15 K | 0.119
in DMSO, 328.15 K | 0.139
in DMSO, 333.15 K | 0.159
in NMP, 283.15 K | 0.0305
in NMP, 288.15 K | 0.0406
in NMP, 293.15 K | 0.0474
in NMP, 298.15 K | 0.0525
in NMP, 303.15 K | 0.0606
in NMP, 308.15 K | 0.0687
in NMP, 313.15 K | 0.075
in NMP, 318.15 K | 0.0827
in NMP, 323.15 K | 0.0987
in NMP, 328.15 K | 0.113
in NMP, 333.15 K | 0.118
in acetone, 283.15 K | 0.00791
in acetone, 288.15 K | 0.00914
in acetone, 293.15 K | 0.0122
in acetone, 298.15 K | 0.0139
in acetone, 303.15 K | 0.0164
in acetone, 308.15 K | 0.018
in acetone, 313.15 K | 0.0201
in acetone, 318.15 K | 0.0236
in acetone, 323.15 K | 0.0278
in benzene, 283.15 K | 0.00583
in benzene, 288.15 K | 0.00619
in benzene, 293.15 K | 0.00676
in benzene, 298.15 K | 0.00771
in benzene, 303.15 K | 0.00967
in benzene, 308.15 K | 0.0119
in benzene, 313.15 K | 0.0152
in benzene, 318.15 K | 0.0181
in benzene, 323.15 K | 0.0208
in benzene, 328.15 K | 0.0259
in benzene, 333.15 K | 0.0303
in ethanol, 283.15 K | 0.0057
in ethanol, 288.15 K | 0.00581
in ethanol, 293.15 K | 0.00644
in ethanol, 298.15 K | 0.00702
in ethanol, 303.15 K | 0.00767
in ethanol, 308.15 K | 0.00837
in ethanol, 313.15 K | 0.0089
in ethanol, 318.15 K | 0.0103
in ethanol, 323.15 K | 0.0112
in ethanol, 328.15 K | 0.0128
in ethanol, 333.15 K | 0.0158
in isopropanol, 283.15 K | 0.00272
in isopropanol, 288.15 K | 0.00278
in isopropanol, 293.15 K | 0.00296
in isopropanol, 298.15 K | 0.00327
in isopropanol, 303.15 K | 0.00374
in isopropanol, 308.15 K | 0.0044
in isopropanol, 313.15 K | 0.00503
in isopropanol, 318.15 K | 0.00591
in isopropanol, 323.15 K | 0.00643
in isopropanol, 328.15 K | 0.00846
in isopropanol, 333.15 K | 0.0103
in methanol, 283.15 K | 0.00638
in methanol, 288.15 K | 0.00648
in methanol, 293.15 K | 0.00713
in methanol, 298.15 K | 0.00785
in methanol, 303.15 K | 0.0088
in methanol, 308.15 K | 0.00975
in methanol, 313.15 K | 0.0103
in methanol, 318.15 K | 0.0109
in methanol, 323.15 K | 0.0118
in methanol, 328.15 K | 0.0143
in n-propanol, 283.15 K | 0.00617
in n-propanol, 288.15 K | 0.00619
in n-propanol, 293.15 K | 0.00669
in n-propanol, 298.15 K | 0.00754
in n-propanol, 303.15 K | 0.00794
in n-propanol, 308.15 K | 0.00863
in n-propanol, 313.15 K | 0.0109
in n-propanol, 318.15 K | 0.0127
in n-propanol, 323.15 K | 0.0142
in n-propanol, 328.15 K | 0.0171
in n-propanol, 333.15 K | 0.0199
in toluene, 283.15 K | 0.00352
in toluene, 288.15 K | 0.00465
in toluene, 293.15 K | 0.00549
in toluene, 298.15 K | 0.00651
in toluene, 303.15 K | 0.0075
in toluene, 308.15 K | 0.00858
in toluene, 313.15 K | 0.0105
in toluene, 318.15 K | 0.0118
in toluene, 323.15 K | 0.014
in toluene, 328.15 K | 0.0164
in toluene, 333.15 K | 0.0202
